Measurements reported in patent publication EP4458977A1, “SELF-ASSEMBLING PEPTIDE AMPHIPHILES AS RETROVIRAL TRANSDUCTION ENHANCERS” (Max-Planck-Gesellschaft zur Förderung der Wissenschaften …, priority 2023, dated 2024).
Values joined by “and” are separate entries in the source; they are usually repeats but may differ in a detail not shown here. Identical values can stand only once. “Also recorded” adds a separate entry of the source. Where a SMILES comes first, the peptide text is derived from it. The star is where a group is joined. Palmitoyl = CCCCCCCCCCCCCCCC(=O)*

What was measured:
[1] = system: HIV-1;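 note: TZM-bl reporter cells exposed to HIV-1 with peptide fibrils, infection read out as β-galactosidase luminescence, compared with virus alone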
Description: HIV-1 Infection Assay with TZM-bl cells: The effect of peptide fibrils on HIV-1 infection was studied via a luminescence assay for β-galactosidase, which was reported by TZM-bl cells upon infection. The HIV-1 infection assay was conducted in three technical replicates and repeated in three independent experiments unless stated otherwise.

[2] = system: CD4+ T cells; conditions: 3 days; 1 µg peptide added to 250,000 cells
Description: Confocal laser scanning microscopy and degradation study with PA1-3 and CD4+ T cells: The degradation of the peptide assemblies on CD4+ T cells was determined by analyzing fluorescence microscopy images. To this end, 4 µL of the preassembled peptide fibrils EF-C, PA1 and PA2 (1 mg mL^-1, 1 d in PBS) were mixed with 4 µL of Proteostat (Enzo Life Science, 1 µL stock in 99 µL PBS) and incubated for 15 min. 2 µL of the stained fibrils were added to 198 µL preactivated and nucleus stained (Hoechst 33342) CD4+ T cells (200 µL, 0.25×10^6 resulting in a final 5 µg mL^-1concentration of the peptide. After incubation for 30 min at 37°C the cells were washed with 3x with PBS and incubated in medium (supplemented RPMI containing IL-15 and 7). Microscopy was conducted on a Zeiss LSM 710 confocal microscope with 20x and 63x objective and laser excitation wavelengths of 405 nm (Hoechst) and 561 nm (Proteostat). The measurements were performed after 30 min and 3 d of incubation at 37°C without any washing step in between. […]
The evaluation of aggregate size and number was conducted by analyzing Proteostat-stained aggregates via the 3D objects counter function of ImageJ 1.53f51 for 6 individual measurements (area 581.25 µm × 581.25 µm) of three individually repeated experiments. […] The degradation of the peptide assemblies on CD4+ T cells was determined by analyzing fluorescence microscopy images. […]

[3] = Zeta-potential measurement (dynamic light scattering); assay type: physicochemical
[4] = system: Jurkat cells; assay: γ-retroviral transduction assay (GALV-RV, GFP+ cells); assay type: cell-based
Description: (§1) γ-Retroviral transduction Assay with Jurkat and CD4+ T cells: The effect of peptide fibrils on retroviral transduction of Jurkat cells was analyzed 3 days post transduction by determining the percentage of GFP + cells by flow cytometry. The assay was conducted according prior art procedures.

[5] = ATR-FT-IR determination of β-sheet content; assay type: physicochemical; conditions: peak integration of parallel β-sheet at 1630 cm-1, 2nd derivative of ATR-IR spectra
How it was run: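 Lyophilized fibril samples measured by diamond ATR-FT-IR, 2 cm^-1 resolution, 64 scans averaged. β-sheet content taken from the second-derivative spectrum as the 1630 cm-1 peak integral relative to the 1650-1700 cm-1 integral.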

[6] = Thioflavin T (ThT) fluorescence assay; assay type: physicochemical; parameters: key to ThT: + = ThT active; - = no ThT fluorescence observed; conditions: for ThT: ThT fluorescence, 1 mg/mL, PBS
Description: Transmission electron microscopy (TEM) measurements, Thioflavin (ThT), zeta-potential measurements for fibril characterization were prepared and conducted according to prior art procedures. […] Fibrils were defined as distinct, if no visible structures could be identified in fluorescence and brightfield microscopy. A peptide fibril was considered as ThT-active if the fluorescence intensity was at least twice as strong compared to the control (PBS containing 10% DMSO).

[7] = Fluorescence microscopy of ThT-stained fibrils (µm-sized aggregates); assay type: physicochemical
How it was run: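 Fibrils (1 mg mL^-1) mixed 1:9 with 50 µM ThT, giving 0.1 mg mL^-1 stained fibrils on glass. Imaged under 10x air objective with excitation 480/40 nm and emission 527/30 nm. Fibrils called distinct when no visible structures appeared in fluorescence or brightfield.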

[8] = system: HeLa cells; assay: Confocal laser scanning microscopy and degradation study with PA library and HeLa cells; assay type: cell-based
How it was run: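 HeLa cells (20,000/well) got Proteostat-stained PAs (2 µg peptide per 20.000 cells) with Hoechst nuclear stain, 30 min at 37°C, PBS-washed, then held 3 d at 37°C unwashed. Confocal imaging at d0 and d3 counted aggregates >10 µm^2 in 1008 × 1008 µm, three technical replicates. Degradation taken as d3/d0 aggregate number.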

[9] = system: HeLa cells; assay: Confocal laser scanning microscopy and degradation study with PA1-3 and HeLa cells; assay type: cell-based; conditions: for degraded over the course of 3 days in the presence of HeLa cells: 4 µg peptide added to 40,000 cells; for association with cellular membranes: HeLa cells, 30 min
Description: 4 µL of the preformed peptide fibrils (1 mg mL^-1) were diluted with 4 µL Proteostat (Enzo Life Science, 1 µL stock in 999 µL PBS) and incubated for 10 min and further diluted with medium to receive a final peptide concentration of 20 µg mL^-1. The nucleus of the HeLa cells was stained with Hoechst 33342 (NucBlue™, Thermo Fisher Scientific). The peptide solution was transferred to the HeLa cells and incubated for 30 min at 37°C before washing three times with PBS. […] For the evaluation of aggregate degradation, the samples were further incubated at 37°C for 3 d and analyzed without any additional washing step. […] The number of aggregates were determined by accumulating the number of aggregates larger than 10 µm^2 in an area of 581.25 × 581.25 µm, repeated in three technical triplicates.

[10] = system: CD4+ T cells; assay: γ-retroviral transduction assay (GALV-RV, GFP+ cells); assay type: cell-based, Human
Description: as §1
Human CD4+ T cells were isolated from a Buffy coat using RosetteSep™ Human CD4+ Enrichment Cocktail ([…] Technologies) according to manufacturer's protocol. Isolated T cells were activated using Dynabeads™ Human T-Activator CD3/CD28 (GibcoTM) according to manufacturer's protocol in presence of 10 ng mL^-1 IL-2 (Miltenyi Biotec) for three days. After 3 days the magnetic Dynabeads were removed using a magnet and T cells were cultured in presence of 9 ng mL^-1 IL-7 (Miltenyi Biotec) and 10 ng mL^-1 IL-15 (Miltenyi Biotec). After 1 day 5×10^5 T cells were transduced with GALV-γ-RV in absence and presence of PA1, PA2, EF-C (0.26, 1.3 and 6.5 µM) and Vectofusin®-1 (10 µg mL^-1; Miltenyi Biotec), or RetroNectin (20 µg mL^-1; Takara Bio). […] After 3 days GFP+ T cells were analyzed by flow cytometry. Viability was determined using LIVE/DEAD™ Fixable Aqua Dead Cell Stain Kit (ThermoFisher Scientific) according to manufacturer's protocol.

[11] = TEM of peptide assemblies (fibril formation / assembly); assay type: physicochemical; parameters: key to Fibril Formation: "1" means fibril formation observed; "0" means no fibrils observed; conditions: for Fibril Formation: via TEM
How it was run: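 Peptides predissolved in DMSO at 10 mg/mL (stock), diluted in PBS to 650 µM or 1 mg/mL final and incubated 1 d at rt (20–25 °C) to form fibrils. Other concentrations obtained by diluting preformed fibrils; assemblies imaged by TEM.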

[12] = Zeta-potential measurement (dynamic light scattering); assay type: physicochemical; conditions: for Zeta Potential / mV: 1 mg/mL, PBS
How it was run: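 Peptide at 1 mg mL-1 stock was diluted tenfold in 1 mM KCl and measured by dynamic light scattering in triplicate. The derived count rate served as a light-scattering and turbidity indicator of microscopic aggregation.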

Structure (SMILES) | transduction enhancement (in words) [4] | β-sheet content / % [5] [%] | ThT [6] | formation of µm-sized aggregates in aqueous medium / PBS (in words) [7] | degraded over the course of 3 days in the presence of HeLa cells [9] [%] | association with cellular membranes [9] | transduction enhancement (in words) [10] | zeta-potential (in words) [12] | Zeta Potential / mV [12] | other results
CCCCCCCCCCCCCCCC(=O)N[C@H](C(=O)N[C@H](C(=O)N[C@H](C(=O)N[C@@H](C)C(=O)N[C@@H](C)C(=O)N[C@@H](C)C(=O)N[C@@H](CCCCN)C(=O)N[C@@H](CCCCN)C(=O)N[C@@H](CCCCN)C(N)=O)C(C)C)C(C)C)C(C)C [PA1] (Palmitoyl-VVVAAAKKK-NH2) | strong transduction enhancement similar to EF-C | 57 | + | formation of µm-sized aggregates; also recorded: microscopic clusters of fibrils were formed | 94 | association with cellular membranes | activity in the range of commercially available gold-standard enhancers RetroNectin and Vectofusin-1 | positive zeta-potential | +22.2 ± 0.7 mV | Infectivity enhancing N fold at 1.3 µM ([1]; relative to virus only): 10±3 N fold; degradation of aggregates by CD4+ T cells (in words) [2]: almost all small aggregates of PA1 (SEQ ID NO. 4) are degraded by CD4+ T cells; Zeta-Potential / mV [3]: 22.2 mV; N-fold ThT-fluorescence ([6]; relative to PBS control): 278.7; Degradability / % (rel. to initial particles > 10 µm^2) ([8]; HeLa cells, 3 d relative to 30 min): 94%; aggregate number decreases / degraded in presence of HeLa cells within 3 days ([8]; d3 relative to d0): 87% and 94%; Assembly without hydrophob residue ([11]; corresponding peptide without hydrophobic moiety): No; Assembly ([11]; peptide amphiphile): Yes; Fibril Formation ([11]; hydrophobic moiety exchange): 1; Fibril Formation ([11]; linkage chemistry exchange): 1; Count Rate / kcps ([12]; derived count rate of scattered light during zeta-potential measurements): 3138.4 kcps
CCCCCCCCCCCCCCCC(=O)N[C@@H](Cc1ccccc1)C(=O)N[C@@H](CCC(N)=O)C(=O)N[C@@H](Cc1ccccc1)C(=O)N[C@@H](CCCCN)C(=O)N[C@@H](Cc1ccccc1)C(=O)N[C@@H](CCCCN)C(=O)N[C@@H](CS)C(N)=O [PA2, C16-FQFKFKC-NH2] (Palmitoyl-FQFKFKC-NH2) | strong transduction enhancement similar to EF-C | 59 | + | formation of µm-sized aggregates; also recorded: microscopic clusters of fibrils were formed | 53 | association with cellular membranes | activity in the range of commercially available gold-standard enhancers RetroNectin and Vectofusin-1 | positive zeta-potential | +19.2 ± 3.4 mV | –
CCCCCCCCCCCCCCCC(=O)N[C@H](C(=O)N[C@H](C(=O)N[C@H](C(=O)N[C@@H](C)C(=O)N[C@@H](C)C(=O)N[C@@H](C)C(=O)N[C@@H](CCC(=O)O)C(=O)N[C@@H](CCC(=O)O)C(=O)N[C@@H](CCC(=O)O)C(N)=O)C(C)C)C(C)C)C(C)C [PA3] (Palmitoyl-VVVAAAEEE-NH2) | – | 61 | + | does not form µm-sized aggregates in PBS; also recorded: did not bundle or adopt µm-sized aggregates in PBS | – | did not associate with cells | – | negative zeta-potential | -29.8 ± 2.7 mV | enhancement of HIV-1 infection / transduction (in words) ([1]; 6.5 µM, 1.3 µM, 0.26 µM): no transduction enhancement; TEM morphology (in words) ([11]; 1 mg/mL in PBS): distinct fibrils
